Experimental data reported in ChEMBL document CHEMBL1134851, “Apoptosis-inducing activity of synthetic intermediates of halichlorine” (Bioorg Med Chem Lett, 2002).
pIC50: −log10 of the molar value.

Test system: THP-1
Assay: Cytotoxicity towards the acute monocytic leukemia cell line (THP-1)
Assay type: functional, cell-based
Conditions: Homo sapiens

Structure (SMILES) | pIC50
CC(C)(C)[Si](OC[C@H]1CCC[C@]12CCC[C@@H]1CCCC(=O)N12)(c1ccccc1)c1ccccc1 | 4.15
CC(=O)N1[C@@H](CCO)CCC[C@]12CCC[C@@H]2CO[Si](c1ccccc1)(c1ccccc1)C(C)(C)C | 4.60
O=C1OC[C@H]2CCC[C@]23CCC[C@H](CCO)N13 | < 4.00
COC(=O)C1=CC[C@H]2CCC[C@]3(CCC[C@@H]3CO[Si](c3ccccc3)(c3ccccc3)C(C)(C)C)N2C1=O | 5.30
CC(C)(C)[Si](OC[C@H]1CCC[C@]12CCC[C@H](CCO)N2)(c1ccccc1)c1ccccc1 | 5.05
CC(C)(C)[Si](OC[C@H]1CCC[C@]12CCC[C@@H]1CCOC(=O)N12)(c1ccccc1)c1ccccc1 | 4.49
COC(=O)C1CC[C@H]2CCC[C@]3(CCC[C@@H]3CO[Si](c3ccccc3)(c3ccccc3)C(C)(C)C)N2C1=O (some centres not stated) | < 4.00
CC(C)(C)[Si](OC[C@H]1CCC[C@]12CCC[C@@H]1CCC(CO)CN12)(c1ccccc1)c1ccccc1 (some centres not stated) | 4.49
COC(=O)C1CC[C@H]2CCC[C@]3(CCC[C@@H]3CO)N2C1=O (some centres not stated) | < 4.00
O=C1OCC[C@H]2CCC[C@]3(CCC[C@@H]3CO)N12 | < 4.00
CC(C)(C)[Si](OC[C@H]1CCC[C@]12CCC[C@@H]1CCC(CO)C(=O)N12)(c1ccccc1)c1ccccc1 (some centres not stated) | 4.20
CCO/C(O)=C/C1=N[C@]2(CCC1)CCC[C@@H]2CO[Si](c1ccccc1)(c1ccccc1)C(C)(C)C | < 4.00
CCOC(=O)C[C@H]1CCC[C@]2(CCC[C@@H]2CO[Si](c2ccccc2)(c2ccccc2)C(C)(C)C)N1 | 4.40
CCOC(=O)C[C@@H]1CCC[C@@]23CCC[C@@H]2CON13 | < 4.00
CCO/C(O)=C/C1=N[C@]2(CCC1)CCC[C@@H]2CO | < 4.00
O=C1CCC[C@H]2CCC[C@]3(CCC[C@@H]3CO)N12 | < 4.00
N#CC1=CC[C@H]2CCC[C@]3(CCC[C@@H]3CO)N2C1=O | < 4.00
